Test results published in patent US20150031102A1, “METHODS AND COMPOSITIONS FOR ENHANCED PRODUCTION OF BUTANOL BY CLOSTRIDIA” (Butrolix LLC, priority 2012, published 2015).

Columns and labels:
[1] = tested on: C. beijerinckii NCIMB 8052; assay: Germination and sequential batch cultures of C. beijerinckii NCIMB 8052 grown at 37° C. (growth OD600, final pH, ceric ion reactive compounds); assay type: cell-based, Clostridium beijerinckii
Protocol: (§1) Clostridium acetobutylicum ATCC 824 and C. beijerinckii NCIMB 8052 are available from several commercial microbial culture collections including the American Type Culture Collection (ATCC), Manassas, Va., USA. The strain grown at 30 C or 37 C in YE broth, which contained, per liter: 5.0 g yeast extract, 2.5 g casamino acids, 1.0 g L-asparagine, 0.5 g cysteine·HCl, 56 mg K2HPO4, 56 mg KH2PO4, 82 mg anhydrous MgSO4, 8 mg FeSO4.H2O, 6 mg MnSO4.H2O and 10 g glucose. Alternatively, strains were grown in YEPG broth, which was identical to YE expect that K2HPO4 and KH2PO4 were increased to 145 mg/L each and glucose was increased to 60 g/L. The pH of the media was adjusted to 7.2 using 45% KOH prior to sterilization by autoclaving. Media were solidified by addition of 1.5% Bacteriological Agar, Acumedia Manufacturers, Inc., Lansing, Mich. All cultures were grown in anaerobic conditions using the AnaeroPack System, Mitsubishi Gas Chemical Co., Inc., Japan, and GasPak EZ Gas Generating Sachets, Becton, Dickinson and Co., Sparks, Md. Spore stocks were kept at room temperature on agar-solidified media and were activated by suspending spores in 0.5 mL to 1.0 mL of medium followed by heating for 10 min at 80 C before inoculation into growth medium.
(§2) Growth of bacterial cultures was measured spectrophotometrically using optical density at 600 nm and pH of cell-free culture supernatants was measured using a hand-held Shindengen ISFET pH Meter KS501, Shendengen Electric Manufacturing Co., Ltd., Bannockburn, Ill.
(§3) Total alcohols in cell-free culture supernatants were measured using a modification of a colorimetric method based on ceric ammonium nitrate (Reid and Truelove, 1952). The ceric ion reagent was prepared by adding 1.3 mL of concentrated nitric acid to 40 mL of distilled water, then 10.96 g of ceric ammonium nitrate was dissolved in the dilute nitric acid solution and the solution was brought to a final volume of 50 mL. For the assay, […] of butanol standard or culture supernatant was mixed with […] distilled water in a disposable plastic cuvette followed by addition of […] of the ceric ion reagent. The sample was mixed by inverting the cuvette six times then exactly two minutes later the optical density at 500 nm wavelength was measured. The concentration of total alcohols was determined by comparison with a standard curve prepared by using butanol diluted in distilled water.
Spores of C. beijerinckii NCIMB 8052 were germinated and grown overnight at 37 C under anaerobic conditions in YEPG medium that either contained 50 nM of peptide SEQ ID NO: 145 or no added peptide. After about 24 h of growth, […] of the untreated culture was transferred (transfer 1) to each of two flasks that contained 10 mL of YEPG with either no treatment or with 50 nM peptide SEQ ID NO: 145. At the same time, 10 μL of the culture that was germinated in the presence of peptide SEQ ID NO: 145 was also transferred to 10 mL of YEPG that contained 50 nM of peptide SEQ ID NO: 145. Thereafter, […] of each culture was transferred, at the same time, every 24-48 h to 10 mL of fresh YEPG that contained the same peptide treatment or no treatment. Each culture was stopped after 72 hours of incubation and optical density, pH and ceric ion reactive chemicals were measured. Addition of peptide SEQ ID NO: 145 appeared to have no effect on endpoint measurements of the growth of C. beijerinckii NCIMB 8052 after germination or during sequential transfers of cultures at 37° C. (Table 18 and FIG. 10). All three cultures stopped growing at the second transfer. Likewise, there was no apparent effect on endpoint measurements of pH or ceric ion reactive compounds (Tables 19 and 20 and FIGS. 11 and 12).

[2] = tested on: C. beijerinckii NCIMB 8052; assay: Sequential batch cultures of C. beijerinckii NCIMB 8052 grown at 30° C. in YEPG (growth OD600, final pH, ceric ion reactive compounds); assay type: cell-based, Clostridium beijerinckii
Protocol: as §1, §2, §3
Spores of C. beijerinckii NCIMB 8052 were germinated and grown overnight at 30 C under anaerobic conditions in YEPG medium. After about 24 h of growth, […] of the culture was transferred (transfer 1) to each of four flasks that contained 10 mL of YEPG and either had no treatment or were treated with peptide SEQ ID NO: 145 (see Table 8) at 1 nM, 10 nM or 50 nM. Thereafter, […] of each culture was transferred, at the same time, every 24-48 h to 10 mL of fresh YEPG that contained the same peptide treatment or no treatment. Each culture was stopped after 96 hours of incubation and optical density, pH and ceric ion reactive chemicals were measured. Sequential batch culturing was continued through 6 transfers at which point all cultures appeared to be growing to the same extent (Table 12 and FIG. 4).

[3] = 50 nM added after germination, transfer 1, 72 h culture
[4] = 50 nM added after germination, transfer 2, 72 h culture
[5] = 50-50 (germinated and transferred in 50 nM), transfer 1, 72 h culture
[6] = 50-50 (germinated and transferred in 50 nM), transfer 2, 72 h culture
[7] = 50-50 (spores germinated in 50 nM peptide), transfer 0 (germinated culture), 72 h culture
[8] = 10 nM, transfer 1, 96 h culture
[9] = 10 nM, transfer 2, 96 h culture
[10] = 10 nM, transfer 3, 96 h culture
[11] = 10 nM, transfer 4, 96 h culture
[12] = 10 nM, transfer 5, 96 h culture
[13] = 10 nM, transfer 6, 96 h culture
[14] = 50 nM, transfer 1, 96 h culture
[15] = 50 nM, transfer 2, 96 h culture
[16] = 50 nM, transfer 3, 96 h culture
[17] = 50 nM, transfer 4, 96 h culture
[18] = 50 nM, transfer 5, 96 h culture
[19] = 50 nM, transfer 6, 96 h culture

IRLIT (Derived from Clostridium beijerinckii SEQ ID NO: 141) [peptide SEQ ID NO: 145]
Effect on germination and growth (visual observations through the course of growth) ([1]; 50 nM): repressive effect on germination and growth
Final pH [1, 3]: 4.1
Optical density at 600 nm [1, 3]: 1.313
Optical density of ceric ion reactive compounds measured at 500 nm [1, 3]: −0.026
Final pH [1, 4]: 6.5
Optical density at 600 nm [1, 4]: 0.011
Optical density of ceric ion reactive compounds measured at 500 nm [1, 4]: 0.006
Effect on endpoint measurements of growth ([1]; 50 nM, after germination or during sequential transfers): no effect
Final pH [1, 5]: 4.1
Optical density at 600 nm [1, 5]: 1.420
Optical density of ceric ion reactive compounds measured at 500 nm [1, 5]: −0.038
Final pH [1, 6]: 6.6
Optical density at 600 nm [1, 6]: 0.011
Optical density of ceric ion reactive compounds measured at 500 nm [1, 6]: 0.002
Final pH [1, 7]: 4.1
Optical density at 600 nm [1, 7]: 1.158
Optical density of ceric ion reactive compounds measured at 500 nm [1, 7]: −0.017
Culture degeneration in terms of production of total alcohols [2]: transiently increase culture degeneration
Final pH ([2]; 1 nM, transfer 1, 96 h culture): 5.3
Optical density at 600 nm ([2]; 1 nM, transfer 1, 96 h culture): 2.086
Optical density of ceric ion reactive compounds measured at 500 nm ([2]; 1 nM, transfer 1, 96 h culture): 0.065
Final pH ([2]; 1 nM, transfer 2, 96 h culture): 5.3
Optical density at 600 nm ([2]; 1 nM, transfer 2, 96 h culture): 2.086
Optical density of ceric ion reactive compounds measured at 500 nm ([2]; 1 nM, transfer 2, 96 h culture): 0.032
Final pH ([2]; 1 nM, transfer 3, 96 h culture): 5.1
Optical density at 600 nm ([2]; 1 nM, transfer 3, 96 h culture): 2.106
Optical density of ceric ion reactive compounds measured at 500 nm ([2]; 1 nM, transfer 3, 96 h culture): 0.054
Final pH ([2]; 1 nM, transfer 4, 96 h culture): 5.3
Optical density at 600 nm ([2]; 1 nM, transfer 4, 96 h culture): 2.115
Optical density of ceric ion reactive compounds measured at 500 nm ([2]; 1 nM, transfer 4, 96 h culture): 0.041
Final pH ([2]; 1 nM, transfer 5, 96 h culture): 5.3
Optical density at 600 nm ([2]; 1 nM, transfer 5, 96 h culture): 2.090
Optical density of ceric ion reactive compounds measured at 500 nm ([2]; 1 nM, transfer 5, 96 h culture): 0.061
Final pH ([2]; 1 nM, transfer 6, 96 h culture): 5.3
Optical density at 600 nm ([2]; 1 nM, transfer 6, 96 h culture): 2.075
Optical density of ceric ion reactive compounds measured at 500 nm ([2]; 1 nM, transfer 6, 96 h culture): 0.062
Final pH [2, 8]: 5.3
Optical density at 600 nm [2, 8]: 2.080
Optical density of ceric ion reactive compounds measured at 500 nm [2, 8]: 0.050
Final pH [2, 9]: 5.3
Optical density at 600 nm [2, 9]: 2.093
Optical density of ceric ion reactive compounds measured at 500 nm [2, 9]: 0.008
Final pH [2, 10]: 5.0
Optical density at 600 nm [2, 10]: 2.078
Optical density of ceric ion reactive compounds measured at 500 nm [2, 10]: 0.025
Final pH [2, 11]: 5.3
Optical density at 600 nm [2, 11]: 2.108
Optical density of ceric ion reactive compounds measured at 500 nm [2, 11]: 0.047
Final pH [2, 12]: 5.4
Optical density at 600 nm [2, 12]: 2.069
Optical density of ceric ion reactive compounds measured at 500 nm [2, 12]: 0.065
Final pH [2, 13]: 5.3
Optical density at 600 nm [2, 13]: 2.062
Optical density of ceric ion reactive compounds measured at 500 nm [2, 13]: 0.055
Final pH [2, 14]: 5.4
Optical density at 600 nm [2, 14]: 2.102
Optical density of ceric ion reactive compounds measured at 500 nm [2, 14]: 0.060
Final pH [2, 15]: 5.3
Optical density at 600 nm [2, 15]: 2.023
Optical density of ceric ion reactive compounds measured at 500 nm [2, 15]: 0.023
Final pH [2, 16]: 5.2
Optical density at 600 nm [2, 16]: 1.936
Final pH [2, 17]: 5.3
Optical density at 600 nm [2, 17]: 2.061
Optical density of ceric ion reactive compounds measured at 500 nm [2, 17]: 0.039
Final pH [2, 18]: 5.3
Optical density at 600 nm [2, 18]: 2.120
Optical density of ceric ion reactive compounds measured at 500 nm [2, 18]: 0.051
Final pH [2, 19]: 5.3
Optical density at 600 nm [2, 19]: 2.046
Optical density of ceric ion reactive compounds measured at 500 nm [2, 19]: 0.059
Growth of treated cultures during 96 h of incubation ([2]; 1, 10, 50 nM, dose dependent manner, data not shown): slow the growth
Final pH ([2]; all cultures (0, 1, 10, 50 nM), after the third transfer): ~5.3
Number of times that cultures could be transferred ([2]; through six culture transfers, in comparison with an untreated culture): did not affect
